The source of these data is patent US20050137233A1, “Prodrugs of 1-methyl-2-(4-amidinophenylaminomethyl)-benzimidazol-5-yl-carboxylic acid-(N-2-pyridyl-N-2-hydroxycarbonylethyl)-amide” (Boehringer Ingelheim Pharma GmbH & Co. KG, priority 2002, published 2005).

One series relates to female rabbits. Nature of the series: local tolerance after subcutaneous administration, histological comparison of injection sites with placebo sites. The format is in vivo. The text has this:
For example the compounds • A=1-methyl-2-[4-(N-hydroxyamidino)-phenylaminomethyl]-benzimidazol-5-yl-carboxylic acid-(N-2-pyridyl-N-2-ethoxycarbonylethyl)-amide and • B=1-methyl-2-[4-(N-methoxycarbonylamidino)-phenylaminomethyl]-benzimidazol-5-yl-carboxylic acid-(N-2-pyridyl-N-2-hydroxycarbonylethyl)-amide were investigated for their degree of tolerance when administered by subcutaneous route by comparison with active substance II:
Solutions of the test substances were each administered by subcutaneous route once a day on three successive days to two female rabbits (age: 11 to 14 weeks, weight: 2.0 to 3.5 kg). At the same time as the substances were administered a placebo solution was injected contralaterally into the same animal. The animals were killed 48 hours after the last administration and dissected. The injection sites for administering the test substances were compared histologically with the sites of the placebo injections.

Series [1] can be described thus: conversion of the prodrugs into active substance II, plasma concentration by HPLC-MS/MS after subcutaneous administration. It is filed as in vivo. As to conditions: rabbits, after subcutaneous injection, active substance II measured in plasma, detection limit 4 ng/ml. As for the experimental part:
In order to investigate the conversion of the prodrugs A and B into the active substance II, 1.0 ml of blood were taken from the central auricular artery of each of the test animals with K-EDTA syringes at various times after subcutaneous administration. The blood was centrifuged and the plasma was acidified with the same volume of 0.2 M hydrochloric acid. These solutions were stored at −20° C. The concentrations of the active substance II were measured using an HPLC-MS/MS apparatus (Perkin Elmer Sciex API 300 LC-MS/MS system). The detection limit was 4 ng/ml.

Regarding `CCOC(=O)CCN(C(=O)c1ccc2c(c1)nc(CNc1ccc(/C(N)=N\O)cc1)n2C)c1ccccn1` [A, 1-methyl-2-[4-(N-hydroxyamidino)-phenylaminomethyl]-benzimidazol-5-yl-carboxylic acid-(N-2-pyridyl-N-2-ethoxycarbonylethyl)-amide], in the series on female rabbits (rabbit, in vivo, sc), the “degree of tolerance at the injection sites when administered by subcutaneous route” value (shortened to “degree of tolerance”) was “very well tolerated locally”. Besides, the “conversion of the prodrug into the active substance II” value in series [1] is recorded as “converted into the active substance II”. `COC(=O)/N=C(/N)c1ccc(NCc2nc3cc(C(=O)N(CCC(=O)O)c4ccccn4)ccc3n2C)cc1` [B, 1-methyl-2-[4-(N-methoxycarbonylamidino)-phenylaminomethyl]-benzimidazol-5-yl-carboxylic acid-(N-2-pyridyl-N-2-hydroxycarbonylethyl)-amide]: in the series on female rabbits (female rabbits, subcutaneous once a day on three successive days, histology 48 hours after the last administration, versus contralateral placebo injection), the “degree of tolerance” value was “very well tolerated locally”. Further, the “conversion of the prodrug into the active substance II” value in series [1] is on record as “converted into the active substance II”. With `Cn1c(CNc2ccc(C(=N)N)cc2)nc2cc(C(=O)N(CCC(=O)O)c3ccccn3)ccc21` [II, 1-methyl-2-(4-amidinophenylaminomethyl)-benzimidazol-5-yl-carboxylic acid-(N-2-pyridyl-N-2-hydroxycarbonylethyl)-amide], the “degree of tolerance” value in the series on female rabbits (rabbit, in vivo, sc) was “clear signs of inflammation at the injection sites”.
